Measurements taken from paper PMC6273811, “Synthesis and Antitumor Evaluation of Novel 5-Hydrosulfonyl-1H-benzo[d]imidazol-2(3H)-one Derivatives” (Molecules, 2016).
≈ marks a conversion by molar mass, not a printed value.

Key:
A549 = assay: MTT cell proliferation assay, A549; type: cell-based; settings: Homo sapiens, 48 h, read-out: In vitro cytotoxic activity IC50, A549
Description: (§1) Compounds 5a–o were evaluated for their cytotoxic activity in vitro against some human cancer cell lines, including A549, HCC1937 and MDA-MB-468 by applying a MTT colorimetric assay. Doxorubicin was used as positive control. The calculated IC50 values were reported differently according to the different cancer cells.
(§2) All target compounds were evaluated for their cytotoxic activities (%) in vitro against human cancer cell lines, including A549, HCC1937 and MDA-MB-468, by applying the MTT colorimetric assay. The cell concentration was adjusted to 2 × 10^4/mL using complete culture medium, then 100 μL cell suspension was inoculated in each well of a 96-well culture plate and cultured for 24 h. All the target compounds were adjusted to different concentrations ranging from 1.25 μmol/L to 40 μmol/L, then 100 μL solution was added to each well of 96-well culture plate and 100 μL complete culture medium was added to the control group. Cells were placed under 5% CO2 at 37 °C and cultured for 48 h. Then 5 mg/mL MTT 20 μL was added to each well of 96-well culture plate and cultured for another 2~4 h. The medium was removed and 150 μL DMSO was added to each well of 96-well culture plate, then oscillated and mixed 15 min. The absorbance (A) of each well was measured in terms of optical density at a wavelength of 570 nm, each cell viability assay was performed in triplicate and taken the average value, then calculated the IC50. Doxorubicin was the positive control drug.

[1] = tested on: A549, HCC1937 and MDA-MB-468 cell lines; assay: MTT assay, statements over the three cell lines; type: cell-based, human; settings: for IC50: Homo sapiens, range over the three cell lines and over 5a and 5b, read-out: IC50 toward the A549, HCC1937 and MDA-MB-468 cell lines; for Potency compared to 5a and 5b / Activity toward the cell lines (in words): SAR discussion
Description: as §1, §2

[2] = In vitro cytotoxic activity, Hek293; type: cell-based; settings: human, Hek293 cells; unit inferred
Source text: Table 1 In vitro cytotoxic activity of target compounds: 5a–o. | column: Hek293

HCC1937 = assay: MTT cell proliferation assay, HCC1937; type: cell-based; settings: Homo sapiens, 48 h, read-out: In vitro cytotoxic activity IC50, HCC1937
Description: as §1, §2

MDA-MB-468 = assay: MTT cell proliferation assay, MDA-MB-468; type: cell-based; settings: Homo sapiens, 48 h, read-out: In vitro cytotoxic activity IC50, MDA-MB-48
Description: as §1, §2

HCC1937 cells = assay: Annexin V-FITC/PI flow cytometry apoptosis; type: cell-based, human; settings: control 6.7%
Description: When the concentration of 5b was 7.5 μM, the proportion of apoptotic cells was 11.4%. When the concentration was 10 μM, the proportion of apoptotic cells was 13.4%. When the concentration was 15 μM, the proportion of apoptotic cells was 12.9%. When the concentration was 20 μM, the proportion of apoptotic cells was 29%. The proportion of apoptotic cells in control group was 6.7%. As the concentration increased, the number of apoptotic cells increased gradually and the number of apoptotic cells and concentration were directly proportional, although there was no significant difference between 10 μM and 15 μM.
The Annexin V-FITC apoptosis detection kit was used to detect apoptotic cells according to the manufacturer’s protocol. Briefly, cells were gently washed with PBS and collected using trypsinization, disaggregated to a single cell suspension and incubated with 5 μL of Annexin V-FITC and 10 μL of a PI solution for 15 min in the dark. The apoptotic cells were detected using a flow cytometer (BD, San Diego, CA, USA), then quantified and the percentage of apoptotic cells measured.

SK-MEL-5 = tested on: SK-MEL-5; set-up: method as in PMID 9051914; settings: cited from earlier work
KM20L2 = tested on: KM20L2; set-up: method as in PMID 9051914; settings: cited from earlier work

SMILES	IC50 (A549)	IC50 [1]	IC50 [2]	IC50 (HCC1937)	melting point	IC50 (MDA-MB-468)	Proportion of apoptotic cells (HCC1937 cells; HCC1937, 7.5 μM)	Proportion of apoptotic cells (HCC1937 cells; HCC1937, 10 μM)	Proportion of apoptotic cells (HCC1937 cells; HCC1937, 15 μM)	Proportion of apoptotic cells (HCC1937 cells; HCC1937, 20 μM)	Potency compared to 5a and 5b [1]	Activity toward the cell lines (in words) [1]	ED50 (SK-MEL-5)	ED50 (KM20L2)
O=c1[nH]c2cc(S(=O)(=O)N3CCOCC3)ccc2n1Cc1ccccc1 [5a, Benzyl-5-(morpholinosulfonyl)-1H-benzo[d]imidazol-2(3H)-one]	5.2 ± 0.35 µM	2.6 to 9 µM	> 10000 µM	7.8 ± 0.49 µM	198.5 to 200.1 °C	9 ± 0.67 µM								
CN1CCN(S(=O)(=O)c2ccc3c(c2)[nH]c(=O)n3Cc2ccccc2)CC1 [5b, Benzyl-5-(4-methylpiperazin-1-ylsulfonyl)-1H-benzo[d]imidazol-2(3H)-one]	3.1 ± 0.17 µM	2.6 to 9 µM	293 µM	2.6 ± 0.21 µM	107.2 to 108.1 °C	6.3 ± 0.45 µM	11.4%	13.4%	12.9%	29%				
O=c1[nH]c2cc(S(=O)(=O)NC3CCCCC3)ccc2n1Cc1ccccc1 [5c, Benzyl-N-cyclohexyl-2-oxo-2,3-dihydro-1H-benzo[d]imidazole-5-sulfonamide]	88 ± 6.1 µM		248 µM	105 ± 8.9 µM	166.7 to 167.2 °C	> 200 µM					equivalent to 10-fold inferior potency			
O=c1[nH]c2cc(S(=O)(=O)N3CCCCC3)ccc2n1Cc1ccccc1 [5d, Benzyl-5-(piperidin-1-ylsulfonyl)-1H-benzo[d]imidazol-2(3H)-one]	77 ± 6.8 µM		756 µM	85 ± 7.1 µM	189.4 to 190.5 °C	73 ± 6.9 µM					equivalent to 10-fold inferior potency			
O=c1[nH]c2cc(S(=O)(=O)NCc3ccccc3)ccc2n1Cc1ccccc1 [5e, N,1-Dibenzyl-2-oxo-2,3-dihydro-1H-benzo[d]imidazole-5-sulfonamide]	> 200 µM		> 10000 µM	127 ± 9.9 µM	160.6 to 185.9 °C	> 200 µM						almost no activity		
O=C(c1ccccc1)c1cccc(NS(=O)(=O)c2ccc3c(c2)[nH]c(=O)n3Cc2ccccc2)c1 [5f, N-(3-Benzoylphenyl)-1-benzyl-2-oxo-2,3-dihydro-1H-benzo[d]imidazole-5-sulfonamide]	> 200 µM		> 10000 µM	> 200 µM	85.2 to 86.3 °C	82 ± 6.1 µM						almost no activity		
O=c1[nH]c2cc(S(=O)(=O)Nc3ccccc3)ccc2n1Cc1ccccc1 [5g, Benzyl-2-oxo-N-phenyl-2,3-dihydro-1H-benzo[d]imidazole-5-sulfonamide]	> 200 µM		2000 µM	152 ± 9.8 µM	91.9 to 93.3 °C	> 200 µM						almost no activity		
O=c1[nH]c2cc(S(=O)(=O)NC3CC3)ccc2n1Cc1ccccc1 [5h, Benzyl-N-cyclopropyl-2-oxo-2,3-dihydro-1H-benzo[d]imidazole-5-sulfonamide]	> 200 µM		370 µM	> 200 µM	168.6 to 170.3 °C	> 200 µM						almost no activity		
CC(C)NS(=O)(=O)c1ccc2c(c1)[nH]c(=O)n2Cc1ccccc1 [5i, Benzyl-N-isopropyl-2-oxo-2,3-dihydro-1H-benzo[d]imidazole-5-sulfonamide]	> 200 µM		709 µM	> 200 µM	173.4 to 174.7 °C	> 200 µM						almost no activity		
Cc1ccccc1NS(=O)(=O)c1ccc2c(c1)[nH]c(=O)n2Cc1ccccc1 [5j, Benzyl-2-oxo-N-o-tolyl-2,3-dihydro-1H-benzo[d]imidazole-5-sulfonamide]	> 200 µM		666 µM	> 200 µM	223.6 to 225.7 °C	> 200 µM						almost no activity		
O=c1[nH]c2cc(S(=O)(=O)NC3CCCCC3)ccc2n1CCc1ccccc1 [5k, N-Cyclohexyl-2-oxo-1-phenethyl-2,3-dihydro-1H-benzo[d]imidazole-5-sulfonamide]	116 ± 7.6 µM		384 µM	> 200 µM	187 to 188.5 °C	135 ± 9.7 µM								
CN1CCN(S(=O)(=O)c2ccc3c(c2)[nH]c(=O)n3CCc2ccccc2)CC1 [5l, 5-(4-Methylpiperazin-1-ylsulfonyl)-1-phenethyl-1H-benzo[d]imidazol-2(3H)-one]	15 ± 1.1 µM		6310 µM	18 ± 1.2 µM	218.2 to 219.6 °C	22 ± 1.6 µM								
O=c1[nH]c2cc(S(=O)(=O)NC3CC3)ccc2n1CCc1ccccc1 [5m, N-Cyclopropyl-2-oxo-1-phenethyl-2,3-dihydro-1H-benzo[d]imidazole-5-sulfonamide]	> 200 µM		448 µM	> 200 µM	217.8 to 218.9 °C	> 200 µM								
O=c1[nH]c2cc(S(=O)(=O)N3CCCCC3)ccc2n1CCc1ccccc1 [5n, Phenethyl-5-(piperidin-1-ylsulfonyl)-1H-benzo[d]imidazol-2(3H)-one]	16 ± 0.9 µM		> 10000 µM	22 ± 1.3 µM	183.3 to 184.3 °C	12 ± 1.02 µM								
O=c1[nH]c2cc(S(=O)(=O)N3CCOCC3)ccc2n1CCc1ccccc1 [5o, 5-(Morpholinosulfonyl)-1-phenethyl-1H-benzo[d]imidazol-2(3H)-one]	9.7 ± 0.88 µM		> 10000 µM	11 ± 0.71 µM	102.3 to 104.1 °C	15 ± 0.93 µM								
O=C1N[C@H]2n3c(cc(Br)c3Br)C(=O)N3CCC[C@]23N1 [Dibromophakellstatin]													0.11 µg/mL (≈ 0.282 µM)	0.11 µg/mL (≈ 0.282 µM)
COc1cccc2c1C(=O)c1c(O)c3c(c(O)c1C2=O)C[C@@](O)(C(=O)CO)C[C@@H]3O[C@H]1C[C@H](N)[C@H](O)[C@H](C)O1 [Doxorubicin, reference compound]	2.5 ± 0.13 µM		12.2 µM	4.8 ± 0.22 µM		2.7 ± 0.19 µM								
